Assay results: patent publication US3969418A, “(4-Biphenylyl)-butenols” (Boehringer Ingelheim GmbH, priority 1972, dated 1976)

How the values were obtained:
[1] = tested on: kaolin-induced edema and carrageenin-induced edema of the hind paw of the rat; assay: Antiphlogistic (antiexudative) activity, kaolin and carrageenin edema together; format: in vivo, rat (male FW 49); settings: average value from kaolin edema and carrageenin edema, per os
Method: The above pharmacodynamic activity of the compounds of the present invention, namely their antiphlogistic activity and their toxicity, were ascertained in the manner described below.
(§1) The compounds were tested with respect to their antiexudative effect on the kaolin-induced edema and the carrageenin-induced edema of the hind paw of the rat and with respect to their acute toxicity after oral administration to rats, in comparison with phenylbutazone, a compound with known antiphlogistic activities.
(§2) a. Kaolin-induced edema of the hind paw of the rat
(§3) The kaolin edema was induced according to the method given by Hillebrecht [Arzneimittel-Forsch. 4, 607 (1954)] by subplantary injection of 0.05 ml of a 10% suspension of kaolin in a 0.85% sodium chloride solution. Measurement of the volume of the paws was effected using the technique of Doepfner and Cerletti [Int. Arch. Allergy Immunol. 12, 89 (1958)].
(§4) Male FW 49 rats having an average weight of 120 to 150 gm were fed with the test compounds 30 minutes before inducing the edema by means of an oesophageal tube. 5 hours after the provocation of the edema the averaged values of the swelling caused in the rats treated with the test compounds were compared with values measured on control animals. By graphical extrapolation, the dose leading to a 35% reduction of the swelling (ED35) was calculated from the presentage reduction values measured by the administration of different doses.
(§5) b. Carrageenin-induced edema of the hind paw of the rat
The provocation of the carrageenin edema was effected according to the method of Winter et al [Proc. Soc. exp. […]
For the calculation of the reductive effect on the edema the values measured 3 hours after the provocation of the edema were used. […]
(§6) The therapeutical index (a measure for the therapeutic usefulness) was calculated as the quotient of the oral LD50 and of the ED35 value calculated from the anti-exudative effect (average value from the kaolin-edema and the carrageenin-edema).

[2] = tested on: Carrageenin-induced edema of the hind paw of the rat; assay: Carrageenin-induced edema of the hind paw of the rat (antiexudative effect); format: in vivo, rat (male FW 49); settings: per os, 60 min before edema, measured 3 h after, dose for 35% reduction of swelling
Method: as §1, §4, §5
The provocation of the carrageenin edema was effected according to the method of Winter et al [Proc. Soc. exp. Biol. Med. 111, 544 (1962)] by subplantary injection of 0.05 ml of a 1% solution of carrageenin in a 0.85% solution of sodium chloride. The test compounds were administered 60 minutes before the provocation of the edema.
For the calculation of the reductive effect on the edema the values measured 3 hours after the provocation of the edema were used. All the other details were the same as described above in the case of the kaolin-induced edema.

[3] = Therapeutic index (LD50/ED35); settings: in vivo; oral LD50 / average ED35, rat; read-out: Therapeutical Index, ratio between toxic and antiexudative activity LD50/ED35
Method: as §6

in vivo = settings: rat; for LD50 at 336 h: in vivo, po
From the text: The substances were fed as a trituration in Tylose.
The calculation of the LD50 values was effected, as far as possible according to the method of Litchfield and Wilcoxon, based on the percentage of animals which died within 14 days after administration of the different doses.

[4] = tested on: Kaolin-induced edema of the hind paw of the rat; assay: Kaolin-induced edema of the hind paw of the rat (antiexudative effect); format: in vivo, rat (male FW 49); settings: per os, 30 min before edema, measured 5 h after, dose for 35% reduction of swelling, by graphical extrapolation
Method: as §1, §2, §3, §4

Compound	ED35 [1] [mg/kg]	ED35 [2] [mg/kg]	selectivity ratio [3]	LD50 at 336 h (in vivo) [mg/kg]	ED35 [4] [mg/kg]	animals died after application (in vivo; 2000 mgm/kg per os)
OCCC=Cc1ccc(-c2ccccc2F)cc1 [A, 4-(2"-fluoro-4'-biphenylyl)-3-buten-1-ol]	31.5	19	56.2	1770	44	
OCCC=Cc1ccc(-c2ccccc2)cc1 [B, 4-(4'-biphenylyl)-3-buten-1-ol]	46	50	> 43.5	> 2000	42	0 out of 10 animals died
CCCCC1C(=O)N(c2ccccc2)N(c2ccccc2)C1=O [Phenylbutazone, phenylbutazone, reference compound]	63.5	69			58	
